Data from patent US20240270701A1, “BETA ADRENERGIC AGONIST AND METHODS OF USING THE SAME” (Curasen Therapeutics, Inc., priority 2021, published 2024).
Like-named read-outs stand apart in the source and are kept apart here.

Legend:
B1-AR = molecular target: T1, B1-AR (Homo sapiens, UniProt P08588); assay: cAMP Gs dynamic HTRF assay, cells expressing beta-adrenergic receptor (CHO-K1), B1-AR; format: cell-based; details: for EC50: cAMP HTRF, read-out: pEC50 [B1-AR] (converted); for Emax: relative to full agonist isoproterenol, read-out: Emax (% iso) (%) [B1-AR]
T1 construct: expressed in transfected cells; host or cells: CHO-K1
T1 sequence (P08588 whole entry, species assumed): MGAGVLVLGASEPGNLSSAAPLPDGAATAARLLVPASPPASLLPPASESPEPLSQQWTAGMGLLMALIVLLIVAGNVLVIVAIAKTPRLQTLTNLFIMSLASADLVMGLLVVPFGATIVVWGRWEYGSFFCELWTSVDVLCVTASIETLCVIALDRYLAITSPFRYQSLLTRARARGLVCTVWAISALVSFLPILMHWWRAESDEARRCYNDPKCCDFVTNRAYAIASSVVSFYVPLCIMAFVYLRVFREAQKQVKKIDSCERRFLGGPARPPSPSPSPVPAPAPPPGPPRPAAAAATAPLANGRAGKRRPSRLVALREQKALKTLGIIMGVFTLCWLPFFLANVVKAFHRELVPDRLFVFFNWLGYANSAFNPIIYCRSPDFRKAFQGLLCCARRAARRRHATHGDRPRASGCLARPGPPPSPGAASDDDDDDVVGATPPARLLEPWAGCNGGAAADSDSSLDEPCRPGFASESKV
Method: (§1) cAMP homogeneous time-resolved fluorescence (HTRF): experimental methods. Compound efficacy is determined using the cAMP Gs dynamic HTRF assay (Cisbio, catalog #62AM4PEC) largely following the manufacturer's instructions, also detailed below.
(§2) Standard serial dilution curves are 10-point, 5-fold dilutions starting from a highest concentration of 10 μM. Controls present on every assay plate are 0.1% DMSO (vehicle control), 1 μM isoproterenol (full beta-adrenergic agonist control) and […] xamoterol (partial beta-adrenergic agonist control). […] Assay plates are centrifuged at 500×g for 10 seconds. Compounds and IBMX are prepared at 2× final dose to compensate for addition of cells.
(§3) Cell preparation: 1× stimulation buffer, washing PBS (Dulbecco's phosphate-buffered saline, − Mg − Ca; Caisson Labs, catalog #PBL01), assay PBS (Dulbecco's phosphate-buffered saline, + Mg, + Ca; Caisson Labs, catalog #PBL02) and Versene (0.02% EDTA disodium salt solution in PBS without calcium or magnesium; Caisson Labs, catalog #EDL01) are pre-warmed to 37° C. Cells expressing beta-adrenergic receptor were washed in washing PBS to remove growth medium and then released from the surface by incubating with Versene for 5-10 minutes at 37° C. Cells are harvested using assay PBS, counted manually by hemocytometer or by an automated cell counter, pelleted by centrifugation (200×g, 5 minutes) and resuspended in 37° C. 1× stimulation buffer to a final density of 1.5×10^6 cells/mL. 5 μL of the suspended cell solution (7500 cell total) are added to all wells of the 384 well assay plate, the assay plate was covered with an Axygen® plate seal (Corning PCR-SP) and incubated in a humidified 37° C. environment supplemented with 5% CO2 for 30 minutes.
(§4) HTRF reagent addition, reading and data analysis: After 30 minutes of cell stimulation with test compound, the assay plates are centrifuged at 500×g for 10 seconds, and incubation was stopped with the addition of 5 μL cAMP-D2 acceptor, diluted 1:21 in detection and lysis buffer 2 (Cisbio 62CL2FDF) was added to all cells. Subsequently, 5 μL Anti-cAMP-Eu Donor, diluted 1:21 in detection and lysis buffer 2, was added to cells. Plates were sealed and reactions gently ‘vortexed’ at 900 rpm on a Heidolph Titramax 1000 for at least 30 minutes at room temperature. Plates are centrifuged again at 500×g for 10 seconds, and HTRF was measured using a Tecan Spark plate reader at 50 flashes per well. […] Potency estimates (EC50 and pEC50) are derived from the four-parameter nonlinear regression of the concentration-effect curve and an estimate of relative efficacy is determined by comparing the magnitude of the test compound HTRF signal window (min−max dose) with the signal window of the full agonist control, isoproterenol.

B2-AR = molecular target: T2, B2-AR (Homo sapiens, UniProt P07550); assay: cAMP Gs dynamic HTRF assay, cells expressing beta-adrenergic receptor (CHO-K1), B2-AR; format: cell-based; details: for EC50: cAMP HTRF, read-out: pEC50 [B2-AR] (converted); for Emax: relative to full agonist isoproterenol, read-out: Emax (% iso) (%) [B2-AR]
T2 construct: expressed in transfected cells; host or cells: CHO-K1
T2 sequence (P07550 whole entry, species assumed): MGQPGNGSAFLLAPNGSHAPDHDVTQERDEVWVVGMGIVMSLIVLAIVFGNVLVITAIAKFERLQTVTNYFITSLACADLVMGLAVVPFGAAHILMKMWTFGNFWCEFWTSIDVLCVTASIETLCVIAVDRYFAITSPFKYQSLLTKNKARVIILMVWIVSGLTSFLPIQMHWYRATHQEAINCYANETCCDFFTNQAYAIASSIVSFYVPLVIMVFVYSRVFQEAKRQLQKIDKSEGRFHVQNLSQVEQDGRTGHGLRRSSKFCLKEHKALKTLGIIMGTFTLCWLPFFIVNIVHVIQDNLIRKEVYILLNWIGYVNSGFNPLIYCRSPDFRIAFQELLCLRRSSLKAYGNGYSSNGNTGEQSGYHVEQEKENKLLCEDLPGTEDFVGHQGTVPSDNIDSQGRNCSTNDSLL
Method: as §1, §2, §3, §4

Structure (SMILES)	EC50 (B1-AR) [nM]	Emax (B1-AR) [%]	EC50 (B2-AR; CHO-K1 cells) [nM]	Emax (B2-AR; CHO-K1 cells) [%]	Emax (B2-AR; CHO-K1, CHO-K1 cells) [%]
CCC(C)(C)NC[C@H](O)c1ccc(F)c2[nH]ncc12 [I-50]	< 10	70 to 90	< 10	70 to 90	
CC(C)[C@H](C)NC[C@H](O)c1cccc2[nH]ncc12 [I-40]	10 to 100	70 to 90	< 10	> 90	
CC(C)(C)NC[C@@H](O)c1cncc2[nH]ncc12 [I-66]	> 1000	70 to 90	100 to 1000		> 90
CC(C)(C)NC[C@H](O)c1cc(F)c(Cl)c2[nH]ncc12 [I-58]	< 10	70 to 90	< 10		70 to 90
CC(C)(C)NC[C@H](O)c1cccc2[nH]nc(C(N)=O)c12 [I-95]	100 to 1000	70 to 90	100 to 1000	50 to 70	
Cn1ccc(CNC[C@H](O)c2cccc3[nH]ncc23)n1 [I-64]	100 to 1000	70 to 90	100 to 1000	> 90	
CC(C)(C)CNC[C@H](O)c1ccc(Cl)c2[nH]ncc12 [I-68]	10 to 100	70 to 90	< 10	70 to 90	
O[C@@H](CNCC1CC1)c1ccc(F)c2[nH]ncc12 [I-75]	< 10	70 to 90	< 10		> 90
Cc1ccc2cc([C@@H](O)CNC(C)(C)C)ccc2n1 [I-82]	> 1000	< 50	> 1000	< 50	
CC(C)(NC[C@H](O)c1cc(F)cc2[nH]ncc12)C1CC1 [I-19]	< 10	> 90	< 10		> 90
Cc1ccnc2ccc([C@@H](O)CNC(C)(C)C)cc12 [I-72]	100 to 1000	50 to 70	10 to 100		< 50
CC(C)(C)C(C)(C)NC[C@H](O)c1cc(C#N)cc2[nH]ncc12 [I-4]	> 1000	< 50	100 to 1000		> 90
CC1C(=O)Nc2cccc([C@@H](O)CNC(C)(C)C)c21 (stereo partly drawn) [I-91]	> 1000	< 50	> 1000	< 50	
N#Cc1cc([C@@H](O)CNC2CCC2)c2cn[nH]c2c1 [I-152]	10 to 100	70 to 90	10 to 100	> 90	
CC(C)(C)NC[C@H](O)c1ccc(Cl)c2[nH]nc(F)c12 [I-189]	< 10	> 90	< 10		70 to 90
O[C@@H](CNC1CC1)c1cccc2[nH]nc(F)c12 [I-140]	< 10	> 90	< 10	> 90	
Cn1c(=O)[nH]c2cccc([C@@H](O)CNC(C)(C)C)c21 [I-93]	> 1000	70 to 90	> 1000	> 90	
O[C@@H](CNC1CCC1)c1cncc2[nH]ncc12 [I-158]	100 to 1000	> 90	100 to 1000	> 90	
CC(C)[C@H](C)NC[C@H](O)c1ccc(F)c2[nH]ncc12 [I-36]	< 10	70 to 90	< 10		> 90
CC(C)C(C)(C)NC[C@H](O)c1cc(F)cc2[nH]ncc12 [I-32]	10 to 100	> 90	< 10	> 90	
CCC(C)(C)NC[C@H](O)c1ccc(Cl)c2[nH]ncc12 [I-49]	< 10	70 to 90	< 10		70 to 90
CC(C)CNC[C@H](O)c1cncc2[nH]ncc12 [I-163]	> 1000	70 to 90	> 1000	50 to 70	
C[C@H](NC[C@H](O)c1ccc(F)c2[nH]ncc12)C(C)(C)C [I-14]	100 to 1000	70 to 90	< 10		50 to 70
COc1ccc(C[C@@H](C)NC[C@H](O)c2ccc(F)c3[nH]ncc23)cc1 [I-17]	< 10	> 90	< 10	> 90	
